Measurements taken from patent US9095567B2, “Vaccine formulations” (priority 2010, dated 2015).
Entries after “also recorded” stand apart in the source; their conditions may differ.

How the values were obtained:
[1] = 2-PE concentration on storage (Reversed-Phase HPLC assay)
Protocol: 2-EP concentration may be measured with a Reversed-Phase HPLC assay, also as described in Example 3. A Reversed-Phase HPLC assay may be performed in the following manner: Samples are vortexed and diluted 1:10 into 5 mM Succinate buffer in saline, centrifuged and diluted again 1:10 into 5 mM succinate buffer in saline (final dilution of the Test Sample is 1:100). The sample is then assayed utilizing the Agilent Eclipse XDB-C18 HPLC column and a linear gradient of water and acetonitrile containing trifluoroacetic acid. The quantification of the preservative is then compared to a standard curve.
2-PE concentration was measured with a Reversed-Phase HPLC assay. Samples were vortexed and diluted 1:10 into 5 mM Succinate buffer in saline, centrifuged and diluted again 1:10 into 5 mM succinate buffer in saline. Final dilution of the Test Sample was 1:100. The assay utilized the Agilent Eclipse XDB-C18 HPLC column and a linear gradient of water and acetonitrile containing trifluoroacetic acid. 2-PE in 13vPnC Multi-Dose Vaccine samples was quantified against a 2-PE standard curve.

[2] = tested on: Staphylococcus aureus, Pseudomonas aeruginosa, Candida albicans, Aspergillus niger; test: Preservative effectiveness test, single challenge, all challenge organisms (pharmacopeial acceptance criteria); type: cell-based; details: for preservative effectiveness after storage: 2-PE at 3.5 to 5.0 mg/dose
Text: For ascertaining preservative levels according to U.S. and European Pharmacopeias (USP and EP, respectively), the vaccine formation is inoculated once with approximately 10^5 to 10^6 CFU/ml at time 0 (CFU=colony forming units) of:
USP 29 NF 24 Supplement 2 (USP) requires that, after an inoculation of bacterial micro-organism(s), there is at least 1.0 log reduction from the initial calculated count (i.e., at time of inoculation) at 7 days, at least 3.0 log reduction at 14 days from the previous value measured, and no increase at 28 days compared to the previous value measured. For yeast and fungi, the USP requirement is for there to be no increase from time of inoculation at 7, 14 and 28 days.
EP requirements are more stringent. EP 5th Edition 5.6 (5.1.3) requirements for parenteral and ophthalmic preparations has two components: Category A and Category B. Category A (EP-A) requires, for bacteria, at least 2.0 log reduction from the initial calculated count at 6 hours after inoculation, at least 3.0 log reduction from the previous value measured at 24 hours and no recovery at 28 days. Category B (EP-B) requires, for bacteria, at least 1.0 log reduction from the initial calculated count at 24 hours, at least 3.0 log reduction at 7 days from the previous value measured and not more than 0.5 log increase from the previous value measured (i.e., no increase) at 28 days. For yeast and fungi, Category A requires at least 2.0 log reduction at 7 days from the initial calculated count, and no increase at 28 days from the previous measured value; and Category B requires at least 1.0 log reduction from the initial calculated count at 14 days and no increase at 28 days from the previous measured value.
Thirty milliliters (ml) of each vaccine formulation with and without Thimerosal or 2-PE at indicated concentrations or saline containing Thimerosal at 0.02% were inoculated in triplicates with a suspension of each test organism to achieve an inoculum density of approximately 10^5 to 10^6 CFU/ml at time 0 (CFU=colony forming units). […] Samples were mixed to ensure even distribution of challenged organisms. Another 30 ml of vaccine in triplicate (with and without preservative) were used as a negative control and spiked with the culture media alone to evaluate the inherent contamination that might be present in the sample or media. Each of the three series of vaccines, and positive and negative controls, was then separately incubated at 20 to 25° C. Aliquots (1 ml) of the challenged samples and controls (or their appropriate serial ten fold dilutions) were enumerated by plate count in duplicates at time 0 and at intervals of 6 hours, 24 hours, 7 days, 14 days and 28 days post-inoculation.
USP 29 NF 24 Supplement 2 (USP) requires that, after an inoculation of bacterial micro-organism(s), there is at least 1.0 log reduction from the initial calculated count (i.e., at time of inoculation) at 7 days, at least 3.0 log reduction at 14 days from the previous value measured and no increase at 28 days from the previous measured value. For yeast and fungi, the USP requirement is for there to be no increase from the time of inoculation to 7, 14 and 28 days.
EP requirements are more stringent. EP 5th Edition 5.6 (5.1.3) requirements for parenteral and ophthalmic preparations has two components: Category A and Category B. Category A (EP-A) requires, for bacteria, at least 2.0 log reduction from the initial calculated count at 6 hours after inoculation, at least 3.0 log reduction at 24 hours from the previous measured value, and no recovery at 28 days. Category B (EP-B) requires, for bacteria, at least 1.0 log reduction at 24 hours from the initial calculated count, at least 3.0 log reduction at 7 days from the previous value measured and not more than 0.5 log increase at 28 days from the previous value measured (i.e., no increase).

E. coli = tested on: E. coli
Protocol: To represent the worst reasonable case of contamination that may occur in practice during the repeated use of a multi-dose presentation, WHO requires safety testing with deliberate exposure to multiple contamination events using bacterial strains, Pseudomonas Aeruginosa (“PA”), Staphylococcus Aureus (“SA”), Escherichia coli (“EC”) and Bacillus subtilis (“BA”). Formulations are spiked with 5×10^3 CFU/ml of each organism at times 0, 6 hours, 24 hours, 7 days and 14 days after initial challenge and stored either at 2-8° C. or at 22-24° C. to mimic the potential storage conditions in practice.
To assess the appropriateness of WHO multi-dose Open Vial Policy of vaccines in multiple immunization sessions for up to maximum of four weeks, experimental design provided by WHO was implemented. In this study, the effectiveness of Thimerosal was evaluated at the concentration that is present in the majority of U.S. licensed vaccines (0.01%), as well as at a higher concentration of 0.02%. To represent the worst reasonable case of contamination that may occur in practice during the repeated use of a multi-dose presentation, and to test WHO requirements, Prev(e)nar 13 vaccine formulations with 0.01 or 0.02% Thimerosal or with 5.0 mg/dose of 2-PE were deliberately exposed to multiple contamination events using WHO recommended bacterial strains, P. aeruginosa, S. aureus, E. coli and B. subtilis. […]

[3] = 2-PE at 2.5 mg/dose, single challenge
[4] = Thimerosal at 0.01% in Prev(e)nar 13 vaccine formulation, single challenge
[5] = Thimerosal at 0.02% (50 μg mercury per dose), single challenge
[6] = Thimerosal at 0.04% (100 μg mercury per dose), single challenge

OCCOc1ccccc1 [2-PE, 2-phenoxyethanol]
concentration of 2-PE in the formulation on storage ([1]; Prev(e)nar 13 formulation stored at 2-8° C. (two and a half years)): similarly stable; also recorded: did not change | concentration of 2-PE in the formulation on storage ([1]; Prev(e)nar 13 formulation stored at 37° C. (a month)): similarly stable; also recorded: did not change | EP-A anti-microbial effectiveness acceptance criteria [2]: met | EP-B anti-microbial effectiveness acceptance criteria [2]: met | EP acceptance criteria A [2, 3]: failed | EP acceptance criteria B [2, 3]: failed | preservative acceptance criteria EP-B ([2]; 2-PE at 3.5 mg/dose, single challenge): meet | preservative acceptance criteria EP-B ([2]; 2-PE at 5 mg/dose, single challenge): meet | preservative effectiveness after storage ([2]; formulations stored at 2-8° C. for two and a half years): remained persistent | preservative effectiveness after storage ([2]; formulations stored at 37° C. for a month): remained persistent | EP acceptance criteria B ([2]; 2-PE at concentrations of 3.5 to 5.5 mg/dose, single challenge): met | effectiveness as a preservative compared with Thimerosal ([2]; Prev(e)nar 13 formulation, single challenge): more effective

C[CH2][Hg][S]c1ccccc1C(=O)[O-].[Na+] [Thimerosal]
contamination levels of all four inoculated micro-organisms ([2]; 0.01% Thimerosal in Prev(e)nar 13, single challenge, 20-25° C., 28 days): reduced | European acceptance criteria EP-A [2, 4]: did not meet | European acceptance criteria EP-B [2, 4]: did not meet | acceptance limits established by the Japanese Pharmacopoeia [2, 4]: did pass | acceptance limits established by the U.S. Pharmacopoeia [2, 4]: did pass | EP acceptance criteria A [2, 5]: not | EP acceptance criteria B [2, 5]: met | EP acceptance criteria A [2, 6]: not | EP acceptance criteria B [2, 6]: met | reduction of E. coli (E. coli; 0.01% Thimerosal in Prev(e)nar 13, multiple challenges, particularly at 2-8° C.): slow | rate of decay of E. coli in saline formulation versus vaccine formulation (E. coli; 0.02% Thimerosal, multiple challenges): more pronounced
